Molecules are shown by their SMILES.

This data set is described as follows: gradient 5% acetonitrile 3 min, to 50% in 2 min, to 85% in 15 min, held 3 min, 100 µL/min. The following applies: column: Zorbax Extend-C18 2.1 x 50 mm; eluents: water / acetonitrile, 0.1% formic acid. A digest of the protocol: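 Each retention time is based on an adduct peak selected computationally and verified by manual inspection. Measurements used HPLC–quadrupole time-of-flight mass spectrometry in positive and negative ionization mode on mixtures of ~100 pure standards. Chromatography ran on a Zorbax Extend-C18 column (2.1 × 50 mm, 1.8 μm) at 100 μL/min with water and acetonitrile, each containing 0.1% formic acid, and dead and dwell volumes of 40 μL and 900 μL.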
Take `Cc1ccc(N(C)C(=O)CN(C)S(=O)(=O)c2ccc3c(c2)CCCC(=O)N3)cc1`: the RP-LC retention time came to 725 s.

As to `CCOC(=O)c1cc(S(=O)(=O)N2CCCC2C(=O)Nc2ccccc2C(F)(F)F)cn1C` (centres undefined), the RP-LC retention time is 999 s.

In the case of `CN(C)c1ncncc1N1CCC(C(=O)NCc2ccc3c(c2)OCO3)CC1`, the RP-LC retention time is 587 s.

`CCCNC(=O)c1ccc2nc(CCc3ccc(NC(=O)CC)cc3)[nH]c2c1` registered an RP-LC retention time of 608 s.

Consider `Cc1cccc2nnc(N3CCC(C(=O)NCc4ccc(C(F)(F)F)cc4)CC3)n12`, for which the RP-LC retention time is 740 s.

`O=C1CC(C(=O)N(Cc2cccnc2)c2nc3ccccc3s2)CN1c1ccccc1` (centres undefined) gave an RP-LC retention time of 695 s.

As to `CSc1ccc(CNC(=O)c2cn3ccccc3n2)cc1`, the RP-LC retention time amounted to 692 s.

Turning to `O=C(Nc1c(-c2ccccc2)nc2ccccn12)c1ccc(Br)cc1`, the RP-LC retention time stood at 684 s.

With `CS(=O)(=O)Nc1ccc(N2CCCCS2(=O)=O)cc1`, the RP-LC retention time was 615 s.

The compound `COc1ccc(-c2cn3cccnc3n2)cc1NC(=O)c1ccc(OC)c(OC)c1` gave an RP-LC retention time of 641 s.

For `COC(=O)c1ccc2c(=O)n(-c3ccc(Cl)cc3)c(N3CCSC3)nc2c1`, the RP-LC retention time was found to be 1110 s.

The compound `CC1CCN(S(=O)(=O)N2CCCC(C(=O)NCc3ccc(Cl)cc3)C2)CC1` (centres undefined) had an RP-LC retention time of 1050 s.

`CC(=O)CC(=O)Nc1ccc2ccccc2c1` had an RP-LC retention time of 800 s.

`COc1cccc(C(=O)N2CCc3c(c(-c4nnc(-c5ccccc5Cl)o4)nn3C)C2)c1OC` gave an RP-LC retention time of 822 s.

Consider `COc1ccc(-c2noc(C3CCCN3C(=O)c3ccc(Cl)cc3)n2)cc1OC` (centres undefined), for which the RP-LC retention time amounted to 959 s.

Take `COc1cc(CNC(=O)C2CCCN(c3nccnc3Sc3ccccc3)C2)cc(OC)c1` (centres undefined): the RP-LC retention time was 986 s.

For `Cn1c(C(=O)N2CCC(C(=O)NCc3ccccc3Cl)CC2)cc2oc3ccccc3c21`, the RP-LC retention time amounted to 978 s.

`CCOc1cc(C(=O)Nc2nc(-c3ccc4c(c3)N(C)C(=O)CO4)cs2)cc(OCC)c1OCC` came in with an RP-LC retention time of 1140 s.

Take `O=C(Cc1cccc(F)c1)N1CCC(Nc2ncnc3c2CCC3)C1` (centres undefined): the RP-LC retention time was found to be 617 s.

The compound `Cc1ccc(C)c(-c2cc3c4nn(CC(=O)NC5CCCC5)c(=O)n4ccn3n2)c1` yielded an RP-LC retention time of 909 s.

`Cc1cc(C)c(-c2noc(C)n2)c(NC(=O)c2cc(F)cc(F)c2)n1` came in with an RP-LC retention time of 787 s.

`O=C(COc1ccccc1)N1CCc2nc(-c3ccc(Cl)cc3)ncc2C1` registered an RP-LC retention time of 848 s.

Compound `O=C(Cn1c(=O)c2cc(C3CC3)nn2c2ncccc21)NCc1ccc(F)cc1` yielded an RP-LC retention time of 748 s.

Turning to `CC(C)c1nncn1C1CCN(S(=O)(=O)c2ccc(C(F)(F)F)cc2)CC1`, the RP-LC retention time was found to be 791 s.

Consider `O=C(O)CCN1C(=O)C2C3C=CC(C3)C2C1=O` (centres undefined), for which the RP-LC retention time came out at 570 s.

`Cc1ccc(-c2nc(Nc3ccccc3F)sc2CC(=O)O)cc1` came in with an RP-LC retention time of 960 s.

`O=C(O)CC1CCCN(c2cn[nH]c(=O)c2)C1` (centres undefined) had an RP-LC retention time of 570 s.

As for `CCn1c(=O)n(CC)c2cc(N3CCCC3)c(NC(=O)NCc3cccc(OC)c3)cc21`, the RP-LC retention time turned out to be 646 s.

For `CCc1ccc(S(=O)(=O)N2CCc3c(c(-c4nnc(-c5ccccc5F)o4)nn3C)C2)cc1`, the RP-LC retention time turned out to be 1040 s.

Compound `COCCN1C(=O)c2cccn2CC1CNC(=O)c1ccc(Cc2c(C)n[nH]c2C)o1` (centres undefined) had an RP-LC retention time of 594 s.

On to `Cc1cc2c(cc1S(=O)(=O)N1CCCC1)N(C(=O)C1CC1)CC2`, for which the RP-LC retention time amounted to 876 s.

`COCCc1noc(CC2CCOC3(CCN(C(=O)NC(C)(C)C)CC3)C2)n1` (centres undefined) showed an RP-LC retention time of 700 s.

In turn, `CCn1nccc1C(=O)N1CCCC1c1ccccc1C` (centres undefined) showed an RP-LC retention time of 836 s.

Compound `CCn1nc(CNC(=O)Cc2cccc(F)c2)c2ccccc21` returned an RP-LC retention time of 764 s.

In turn, `O=C(NCC1CCOCC1)c1ccc2c(c1)OCO2` had an RP-LC retention time of 655 s.

In turn, `COc1ccc2c(c1)C1(CCN(C(=O)CCc3ccccc3)C1)C(=O)N2` (centres undefined) had an RP-LC retention time of 728 s.

With `COc1ccc(C(=O)N2C[C@@H](Oc3cccnc3)C[C@H]2C(N)=O)c(OC)n1`, the RP-LC retention time was found to be 572 s.

`Cc1ccc(Oc2nccnc2N2CCCC(C(=O)NCc3ccc(C)c(C)c3)C2)cc1` (centres undefined) registered an RP-LC retention time of 1140 s.

For the compound `Cc1nc(-c2csc(S(=O)(=O)N3CCC(C(=O)Nc4ccc(F)cc4Cl)CC3)c2)no1`, the RP-LC retention time is 1010 s.

The compound `O=S(=O)(c1ccc(Cl)cc1)N1CCN(c2cnn3c(C4CC4)nnc3c2)CC1` had an RP-LC retention time of 749 s.

`COc1ccc(C(=O)Nc2nc(-c3ccccc3)cs2)cc1OC` came in with an RP-LC retention time of 961 s.

`Cc1ccc(-c2nnc(Cc3nc(-c4ccncc4)no3)o2)cc1F` registered an RP-LC retention time of 814 s.

The compound `Cc1cc2cc(CNC(=O)C(=O)c3c(C)[nH]c4ccccc34)ccc2[nH]1` had an RP-LC retention time of 1010 s.

`O=C(NCCCN1CCN(Cc2ccccc2)CC1)c1cn2c3c(ccc(Cl)c3c1=O)OCC2` had an RP-LC retention time of 634 s.

Turning to `Cc1c2ccncc2cc2c1[nH]c1ccccc12`, the RP-LC retention time amounted to 637 s.

For `CCCn1cc(C(=O)NCC(C)C)c(S(=O)(=O)N2CCN(c3ccccc3OCC)CC2)n1`, the RP-LC retention time came to 1180 s.

For `CCNc1nc(C)cc(N2CCN(S(=O)(=O)c3ccc(OC)c(C)c3C)CC2)n1`, the RP-LC retention time came to 764 s.

Take `COc1ccc(-c2nnc(COc3cccc(NC(=O)C4CCCC4)c3)o2)cc1`: the RP-LC retention time was determined as 959 s.

In the case of `CCOc1ccccc1NC(=O)c1cnc2c(c1)c(=O)n(C)c(=O)n2-c1ccccc1`, the RP-LC retention time is 961 s.

Compound `Cc1cc2nn(CC(=O)Nc3ccc4c(c3)OCCO4)c(=O)n2c(-c2ccc(F)cc2)n1` showed an RP-LC retention time of 783 s.

Compound `CN(C)c1ncncc1N1CCC(C(=O)NCC2CCCO2)CC1` (centres undefined) yielded an RP-LC retention time of 566 s.

Turning to `CCN1C(=O)COc2cc(-c3noc(C(=O)NCCC4=CCCCC4)n3)ccc21`, the RP-LC retention time was determined as 1120 s.

Regarding `COCCNC(=O)N1c2ccccc2NC2=C(C(=O)CC(C)(C)C2)C1c1ccccc1OC` (centres undefined), the RP-LC retention time is 725 s.

For the compound `O=S(=O)(Nc1ccc(-c2noc(COc3ccc(Cl)cc3)n2)cc1)c1cccs1`, the RP-LC retention time came out at 1120 s.

On to `CCN(CC)C(=O)c1c(C)oc2ccn(Cc3ccc(F)cc3)c(=O)c12`, for which the RP-LC retention time turned out to be 787 s.

As for `Cc1oc(C2CCN(S(=O)(=O)c3cc(F)ccc3F)CC2)nc1C(=O)N1CCCC1`, the RP-LC retention time is 926 s.

`CCCCS(=O)(=O)c1cc2c(cc1NC(=O)Cc1ccc(F)cc1)n(C)c(=O)n2C` came in with an RP-LC retention time of 847 s.

In turn, `O=C(Nc1nc(-c2cccnc2)cs1)C1CN(c2nc3ccccc3s2)C1` returned an RP-LC retention time of 592 s.

Take `Cc1ccc(NC(=O)N2CCCC2c2nc(-c3ccccc3C)no2)c(Cl)c1` (centres undefined): the RP-LC retention time came to 610 s.

`CO[C@H]1CN(C2CCN(Cc3cn(C(C)C)c4ccccc34)CC2)[C@H]1c1ccncc1`: the RP-LC retention time amounted to 590 s.

In turn, `CCOc1ccc2nc(NC(=O)C3CCN(S(=O)(=O)c4cn(CC)cn4)CC3)sc2c1` had an RP-LC retention time of 809 s.

As to `O=C(NCc1cccnc1)c1ccc2c(c1)N(CC(=O)N1CCCC1)C(=O)CO2`, the RP-LC retention time is 619 s.

`CCOC(=O)Nc1ccc2c(c1)N(CCC(C)C)C(=O)C(C)(C)CO2`: the RP-LC retention time worked out at 1070 s.

In turn, `Cc1cc2nn(CC(=O)NCc3ccc4c(c3)OCO4)c(=O)n2c(-c2ccccc2)n1` registered an RP-LC retention time of 600 s.

`O=C(NCCCN1CCCC1=O)c1c(OCC2CC2)cc(=O)n2c1CCCCC2` displayed an RP-LC retention time of 602 s.

The compound `Cc1ccc(C)c(C(=O)N2CCN(c3cc(C)nc(N4CCOCC4)n3)CC2)c1` came in with an RP-LC retention time of 637 s.

For the compound `COc1cc(-c2ccnc3nc(CCc4ccccc4)nn23)cc(OC)c1OC`, the RP-LC retention time was 856 s.

On to `Cc1ccc(-c2csc(NC(=O)CCCc3nc(-c4ccc(Cl)cc4)no3)n2)cc1`, for which the RP-LC retention time turned out to be 1240 s.

Turning to `COc1ccc(Cn2c(=O)c3sccc3n(Cc3nc(-c4ccc(C)cc4)no3)c2=O)cc1`, the RP-LC retention time came out at 1060 s.

`CC1CC(=O)N(CC(=O)Nc2ccc3c(c2)OCCO3)c2ccccc2S1` (centres undefined) displayed an RP-LC retention time of 859 s.

`Cn1cnc([N+](=O)[O-])c1Sc1nnnn1-c1ccccc1` returned an RP-LC retention time of 715 s.

As for `Cc1cccc(-c2nnc(C)c(N3CCc4ccccc4C3)n2)c1`, the RP-LC retention time amounted to 826 s.

`COc1cccc(C(=O)CSc2ccc(-n3cccn3)nn2)c1` came in with an RP-LC retention time of 847 s.

The compound `CN1CCc2c(n(CC(O)Cn3nnc4ccccc43)c3ccccc23)C1=O` (centres undefined) gave an RP-LC retention time of 754 s.

For the compound `CC(C)C(=O)n1nc(-c2ccccc2)nc1N`, the RP-LC retention time was determined as 888 s.

For `Cc1ccc(-c2nc(C3CC(=O)N(c4ccc(F)c(Cl)c4)C3)no2)cc1C` (centres undefined), the RP-LC retention time came to 1090 s.

`O=c1n(Cc2cc(F)cc(F)c2)nc2ccc(S(=O)(=O)N3CCCCC3)cn12` returned an RP-LC retention time of 960 s.

Compound `Nc1ncc2c(n1)CC(c1ccco1)CC2=O` (centres undefined) returned an RP-LC retention time of 676 s.

Take `Cc1ncoc1C(=O)N[C@@H]1CN(S(C)(=O)=O)C[C@H]1CN(C)C`: the RP-LC retention time is 516 s.

The values above are taken from the METLIN SMRT retention time set (Domingo-Almenara et al. 2019).
